Here are results for 18 molecules from publication PMC9039177 (Frontiers in Chemistry, 2022).

The target of data set [1] is T1, SARS-CoV-2 PLpro (Severe acute respiratory syndrome coronavirus 2, UniProt P0DTD1). As to the kind of experiment: biochemical.
A short description of a further data set: physchem. Conditions: kinetic from dmso stock.
The target of data set [2] is T2, SARS-CoV PLpro (Severe acute respiratory syndrome coronavirus, UniProt P0C6X7). As to the kind of experiment: biochemical.
Data set [3] deals with T2, SARS-CoV PLpro. Briefly: biochemical. Format: binding.
Data set [4] concerns the target T3, MERS-CoV PLpro (Middle East respiratory syndrome-related coronavirus, UniProt K9N7C7). Briefly: biochemical.
The nature of data set [5]: in vitro. Conditions: human, microsomes, pH 7.4.
A further data set relates to SARS-CoV-2. It is filed as cell-based.
A short description of data set [6]: in vitro. The conditions noted are these: mouse, microsomes, pH 7.4.
The target of data set [7] is T1, SARS-CoV-2 PLpro. As to the kind of experiment: biochemical. Format: binding.
Data set [8] in a line: in vitro. The conditions noted are these: human, Caco-2, pH 7.4.
For data set [9], the target named is T3, MERS-CoV PLpro. Briefly: biochemical. It is filed as binding.

Converted amounts (≈) assume the structure as drawn. “And” between values parts separate entries of the source, which are not always exact repeats. Equal entries are not always repeated. Structures can show the parent of a compound that is named as a salt. Where two headings read alike, the source gives them in different places.

For orientation: IC50 means the concentration that inhibits the measured activity by half. As usually defined, the kinetic solubility is solubility judged after dilution from a stock solution rather than from solid. What is called Kd is the equilibrium constant for the complex coming apart. For orientation: half-life means the time needed for the level to fall by half in the phase considered. Low values mean fast loss, high ones slow loss. One may read the microsomal CLint as the capacity of the preparation to metabolise the compound, expressed as a volume cleared per time. Usually Papp A→B stands for the apparent permeability from the apical to the basolateral side of a cell layer. One may read the Papp B→A as how fast a substance crosses the layer from the basolateral side.

T3 sequence (K9N7C7 1482-1803 limits assumed): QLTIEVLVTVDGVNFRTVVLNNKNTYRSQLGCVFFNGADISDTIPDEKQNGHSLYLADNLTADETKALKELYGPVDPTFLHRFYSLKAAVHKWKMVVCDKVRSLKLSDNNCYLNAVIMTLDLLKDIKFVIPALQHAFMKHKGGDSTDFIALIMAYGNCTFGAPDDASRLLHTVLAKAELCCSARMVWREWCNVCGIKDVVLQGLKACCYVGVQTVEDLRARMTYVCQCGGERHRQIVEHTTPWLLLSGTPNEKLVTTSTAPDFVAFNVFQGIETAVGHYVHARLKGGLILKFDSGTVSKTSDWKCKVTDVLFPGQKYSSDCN

Turning to `C[C@H](c1cccc2ccccc12)N1CCC(C(=O)NCC2CCOCC2)CC1` [Compound 17, (R)-1-(1-(naphthalen-1-yl)ethyl)-N-((tetrahydro-2H-pyran-4-yl)methyl)piperidine-4-carboxamide], at SARS-CoV-2 PLpro [1] (calculated IC50), the IC50 is 1300 nM.

Turning to `COc1cc(CNC(=O)C2CCN(C(C)c3ccc(F)c4ccccc34)CC2)ccn1` (stereo not drawn) [Compound 8, 1-[1-(4-fluoronaphthalen-1-yl)ethyl]-N-[(2-methoxypyridin-4-yl)methyl]piperidine-4-carboxamide], the “loss of potency relative to parent 5c” value at SARS-CoV-2 PLpro [1] is recorded as 3 fold. Further, the IC50 on SARS-CoV-2 PLpro [1] (calculated IC50) is 2200 nM.

With `CCOc1ccc(Cl)cc1C(C)N1CCC(C(=O)NCc2ccnc(OC)c2)CC1` (stereo not drawn) [Compound 5, 1-[1-(5-chloro-2-ethoxyphenyl)ethyl]-N-[(2-methoxypyridin-4-yl)methyl]piperidine-4-carboxamide], the IC50 on SARS-CoV-2 PLpro [1] (calculated IC50) is 7900 nM.

On to `CCOc1ccc2ccccc2c1C(C)N1CCC(C(=O)NCc2ccnc(OC)c2)CC1` (stereo not drawn) [Compound 7, 1-[1-(2-ethoxynaphthalen-1-yl)ethyl]-N-[(2-methoxypyridin-4-yl)methyl]piperidine-4-carboxamide], for which the “potency against SARS-CoV-2 PLpro in words” value (shortened to “potency … in words”) at SARS-CoV-2 PLpro [1] was “not tolerated”.

With `C[C@H](c1cccc2ccccc12)N1CCC(C(=O)NCc2ccc(S(N)(=O)=O)cc2)CC1` [Compound 16, (R)-1-(1-(naphthalen-1-yl)ethyl)-N-(4-sulfamoylbenzyl)piperidine-4-carboxamide formate], the 50% inhibitory concentration (IC50) on SARS-CoV-2 PLpro [1] (calculated IC50) was 590 nM.

As to `COc1cc(CNCC2CCN([C@H](C)c3cccc4ccccc34)CC2)ccn1.O=CO` [Compound 11, (R)-1-(2-methoxypyridin-4-yl)-N-((1-(1-(naphthalen-1-yl)ethyl)piperidin-4-yl)methyl)methanamine formate], the “loss of potency relative to parent 5c” value at SARS-CoV-2 PLpro [1] is reported as 7 fold. Further, on SARS-CoV-2 PLpro [1] (calculated IC50), the IC50 is 5700 nM.

Turning to `COc1cc(CNC(=O)C2CCN(C(C)c3c(C)sc4ccccc34)CC2)ccn1` (stereo not drawn) [Compound 3, N-[(2-methoxypyridin-4-yl)methyl]-1-{1-[2-methylbenzo(b)thiophen-3-yl]ethyl}piperidine-4-carboxamide], at SARS-CoV-2 PLpro [1], the “potency … in words” value is “completely inactive”.

As for `Cc1ncc(CNC(=O)C2CCN([C@H](C)c3cccc4ccccc34)CC2)s1` [Compound 14, (R)-N-[(2-methylthiazol-5-yl)methyl]-1-(1-(naphthalen-1-yl)ethyl)piperidine-4-carboxamide], the IC50 on SARS-CoV-2 PLpro [1] (calculated IC50) was 710 nM.

`COc1cc(C(=O)NCC2CCN([C@H](C)c3cccc4ccccc34)CC2)ccn1` [Compound 10, (R)-2-methoxy-N-((1-(1-(naphthalen-1-yl)ethyl)piperidin-4-yl)methyl)isonicotinamide]: the “loss of potency relative to parent 5c” value at SARS-CoV-2 PLpro [1] was 4 fold. In addition, the IC50 at SARS-CoV-2 PLpro [1] (calculated IC50) is 3400 nM.

For `COc1cc(CNC(=O)C2CCN(C(C)c3ccc(OC)c4ccccc34)CC2)ccn1` (stereo not drawn) [Compound 9, 1-[1-(4-methoxynaphthalen-1-yl)ethyl]-N-[(2-methoxypyridin-4-yl)methyl]piperidine-4-carboxamide], the “Mouse plasma protein binding” value stood at 90.1 % bound. For the same molecule, the solubility (kinetic) in “physchem” (pH 2, aqueous buffer) is more than 140 µg/mL. In the data set “physchem” (pH 6.5, aqueous buffer), this molecule showed a kinetic solubility of 70 to 140 µg/mL (≈ 161 to 323 µM). The molecule further yielded an IC50 against SARS-CoV PLpro [2] of 700 nM. In addition, the Kd at SARS-CoV PLpro [3] (KD Exp1, SARS-CoV) was 805 nM. The molecule also gave a Kd on SARS-CoV PLpro [3] (KD Exp2, SARS-CoV) of 800 nM. The affinity on SARS-CoV PLpro [3] (KD Exp3, SARS-CoV), expressed as Kd, was 840 nM. Moreover, the Kd on SARS-CoV PLpro [3] (KD, SARS-CoV) was 815 nM and 820 nM. Besides, the IC50 against MERS-CoV PLpro [4] is more than 98000 nM. In the data set “in vitro [5]”, the half-life is 39 min and the microsomal CLint came out at 45 µL/min/mg. In addition, in the data set on SARS-CoV-2, the “reduction of viral titer” value was found to be 1 log and the viral titer entry is given as “below the limit of detection”. The same molecule showed an IC50 against SARS-CoV-2 PLpro [1] (IC50, SARS-CoV-2) of 760 nM. In the data set with Caco-2 cell monolayers, the “efflux in Caco-2” value is “no evidence of efflux”. In “in vitro [6]”, this molecule returned a half-life of 35 min and a microsomal CLint of 50 µL/min/mg. The molecule further registered a Kd on SARS-CoV-2 PLpro [7] (KD Exp1, SARS-CoV-2 PLpro WT) of 1420 nM. Also, the Kd at SARS-CoV-2 PLpro [7] (KD Exp2, SARS-CoV-2 PLpro WT) was 1820 nM. Besides, the Kd at SARS-CoV-2 PLpro [7] (KD Exp3, SARS-CoV-2 PLpro WT) turned out to be 2340 nM. On SARS-CoV-2 PLpro [7] (KD, SARS-CoV-2), this molecule came in with a Kd of 1860 ± 460 nM. In the data set “in vitro [8]”, this molecule showed a Papp A→B of 46 ×10⁻⁶ cm/s and a Papp B→A of 46 ×10⁻⁶ cm/s. For the same molecule, the Kd at MERS-CoV PLpro [9] is more than 20000 nM. Besides, at MERS-CoV PLpro [9] (read-out: KD Exp1, MERS-CoV), the Kd is more than 20000 nM. The equilibrium dissociation constant (Kd) at MERS-CoV PLpro [9] (read-out: KD Exp3, MERS-CoV) is more than 20000 nM.

Regarding `C[C@H](c1cccc2ccccc12)N1CCC(C(=O)NCc2cccnc2)CC1` [Compound 15, (R)-1-(1-(naphthalen-1-yl)ethyl)-N-(pyridin-3-ylmethyl)piperidine-4-carboxamide], on SARS-CoV-2 PLpro [1] (calculated IC50), the IC50 is 820 nM.

Turning to `CNC(=O)C1CCN([C@H](C)c2cccc3ccccc23)CC1` [Compound 12, (R)-N-methyl-1-(1-(naphthalen-1-yl)ethyl)piperidine-4-carboxamide], the “loss of potency relative to parent 5c” value at SARS-CoV-2 PLpro [1] is on record as 4 fold. Also, on SARS-CoV-2 PLpro [1] (calculated IC50), the IC50 was 3100 nM.

Turning to `COc1cc(CNC(=O)C2CCN(C(C)c3cccc(-c4ccccc4)c3)CC2)ccn1` (stereo not drawn) [Compound 1, 1-{1-[(1,1′-biphenyl)-3-yl]ethyl}-N-[(2-methoxypyridin-4-yl)methyl]piperidine-4-carboxamide], the “loss of potency relative to parent 5c” value at SARS-CoV-2 PLpro [1] turned out to be 20 fold. The IC50 on SARS-CoV-2 PLpro [1] (calculated IC50) is 18000 nM.

Take `COc1cc(CNC(=O)C2CCN(C(C)c3c(OC)ccc4ccccc34)CC2)ccn1.O=CO` (stereo not drawn) [Compound 6, 1-[1-(2-methoxynaphthalen-1-yl)ethyl]-N-[(2-methoxypyridin-4-yl)methyl]piperidine-4-carboxamide formate]: the “potency … in words” value at SARS-CoV-2 PLpro [1] is “not tolerated”.

Take `COc1cc(CNC(=O)C2CCN(C(C)c3cc(Cl)ccc3OC)CC2)ccn1` (stereo not drawn) [Compound 4, 1-(1-(5-chloro-2-methoxyphenyl)ethyl)-N-((2-methoxypyridin-4-yl)methyl)piperidine-4-carboxamide]: the IC50 at SARS-CoV-2 PLpro [1] (calculated IC50) is 4600 nM.

For `C[C@H](c1cccc2ccccc12)N1CCC(C(=O)NCc2cccc(F)c2)CC1` [Compound 3k], the “Mouse plasma protein binding” value was found to be 95.3 % bound. In the data set “physchem” (pH 2, aqueous buffer), this molecule came in with a kinetic solubility of more than 100 µg/mL. Also, the solubility (kinetic) in “physchem” (pH 6.5, aqueous buffer) is 12.5 to 25 µg/mL (≈ 32 to 64 µM). The same molecule returned an IC50 against SARS-CoV PLpro [2] of 860 nM. Further, binding on SARS-CoV PLpro [3] (KD Exp1, SARS-CoV) was put at a Kd of 662 nM. This molecule also registered a Kd on SARS-CoV PLpro [3] (KD Exp2, SARS-CoV) of 795 nM. Also, the Kd at SARS-CoV PLpro [3] (KD Exp3, SARS-CoV) was determined as 686 nM. Further, the Kd at SARS-CoV PLpro [3] (KD, SARS-CoV) is 714 nM and 710 nM. For the same molecule, the IC50 at MERS-CoV PLpro [4] is more than 98000 nM. In the data set “in vitro [5]”, this molecule showed a half-life of 7 min and a microsomal CLint of 247 µL/min/mg. The “reduction of viral titer” value with SARS-CoV-2 is recorded as 1 log. On SARS-CoV-2 PLpro [1] (IC50, SARS-CoV-2), this molecule had an IC50 of 1020 nM. Also, the “efflux in Caco-2” value in the data set with Caco-2 cell monolayers was “no evidence of efflux”. Further, in the data set “in vitro [6]”, the half-life stood at 5 min and the microsomal CLint stood at 337 µL/min/mg. Moreover, binding at SARS-CoV-2 PLpro [7] (KD Exp1, SARS-CoV-2 PLpro WT) was put at a Kd of 2000 nM. For the same molecule, at SARS-CoV-2 PLpro [7] (KD Exp2, SARS-CoV-2 PLpro WT), binding was characterised by a dissociation constant (Kd) of 2350 nM. This molecule displayed a Kd on SARS-CoV-2 PLpro [7] (KD Exp3, SARS-CoV-2 PLpro WT) of 2850 nM. In addition, on SARS-CoV-2 PLpro [7] (KD, SARS-CoV-2), binding was put at a Kd of 2400 ± 430 nM. In the data set “in vitro [8]”, this molecule came in with a Papp A→B of 35 ×10⁻⁶ cm/s and a Papp B→A of 36 ×10⁻⁶ cm/s. In addition, the Kd on MERS-CoV PLpro [9] is more than 20000 nM. Further, on MERS-CoV PLpro [9] (read-out: KD Exp1, MERS-CoV), the Kd was more than 20000 nM. Besides, the Kd on MERS-CoV PLpro [9] (read-out: KD Exp3, MERS-CoV) was more than 20000 nM.

In the case of `COc1cc(CNC(=O)C2CCN(C(C)c3csc4ccccc34)CC2)ccn1` (stereo not drawn) [Compound 2, 1-{1-[benzo(b)thiophen-3-yl]ethyl}-N-[(2-methoxypyridin-4-yl)methyl]piperidine-4-carboxamide formate], the concentration for half-maximal inhibition (IC50) on SARS-CoV-2 PLpro [1] (calculated IC50) is 4500 nM.

Take `C[C@H](c1cccc2ccccc12)N1CCC(C(=O)NCc2ccn(C)c(=O)c2)CC1` [Compound 13, (R)-N-[(1-methyl-2-oxo-1,2-dihydropyridin-4-yl)methyl]-1-[1-(naphthalen-1-yl)ethyl]piperidine-4-carboxamide]: at SARS-CoV-2 PLpro [1] (calculated IC50), the IC50 was 690 nM.
